In patent publication US4436751A, “Nitrobenzyl monates antibacterial compounds” (Beecham Group Limited, priority 1980, dated 1984):
Values after ≈ are worked out from the molar mass of the structure shown. Read-outs that look alike come from different tables or passages of the source.

Experiments:
Assay type in all cases: cell-based
M. suipneumoniae LABER = experiment: Anti-mycoplasmal MIC in vitro, Friis broth agarose (Table 1); conditions: Mesomycoplasma hyopneumoniae, 144 h
[1] = test system: M. suipneumoniae NCTC 10110; experiment: as above; conditions: Mesomycoplasma hyopneumoniae, NCTC10110, 144 h
Strep. dylgalactiae SPD1 = experiment: Veterinary bacteria MIC, Diagnostic Sensitivity Test Agar (Table 2); conditions: 18 h
Procedure: (§1) The values were determined using a two fold serial dilutions in Diagnostic Sensitivity Test Agar with an inoculum of 10^4 organisms and incubation for 18 hours at 37° C.

Staph. aureus 152 = experiment: as above; conditions: Staphylococcus aureus, 152, 18 h
Procedure: as §1

Past. multocida PA2 = experiment: as above; conditions: Pasteurella multocida
Procedure: as §1

Bord. bronchiseptica BO9 = experiment: as above; conditions: Bordetella bronchiseptica
Procedure: as §1

[2] = test system: Strep. suis (group D) SPS11; experiment: as above; conditions: Streptococcus suis
Procedure: as §1

Strep. uberis SPO1 = experiment: as above; conditions: Streptococcus uberis
Procedure: as §1

Past. haemolytica PA5 = experiment: as above; conditions: Mannheimia haemolytica
Procedure: as §1

Staph. aureus Oxford = experiment: as above; conditions: Staphylococcus aureus, 18 h
Procedure: as §1

[3] = test system: Erysipelothrix rhusiopathiae NCTC 8163; experiment: as above
Procedure: as §1

[4] = test system: Corynebacterium pyogenes CY1; experiment: as above; conditions: Trueperella pyogenes, CY1, 18 h
Procedure: as §1

S. typhimurium S18 = experiment: as above; conditions: Salmonella enterica, TYPHIMURIUM, 18 h
Procedure: as §1

Strep. agalactiae SPA1 = experiment: as above; conditions: Streptococcus agalactiae
Procedure: as §1

E. Coli E1 = experiment: as above; conditions: Escherichia coli, 18 h
Procedure: as §1

E. Coli NCTC 10418 = experiment: as above; conditions: Escherichia coli, NCTC10418, 18 h
Procedure: as §1

Staph. aureus B4 = experiment: as above; conditions: Staphylococcus aureus
Procedure: as §1

Bord. bronchiseptica BO8 = experiment: as above; conditions: Bordetella bronchiseptica, BO8, 18 h
Procedure: as §1

Past. multocida PA1 = experiment: as above; conditions: Pasteurella multocida
Procedure: as §1

S. dublin S7 = experiment: as above; conditions: Salmonella enterica, S7, 18 h
Procedure: as §1

[5] = test system: M. bovigenitalium ATOC 14173; experiment: Anti-mycoplasmal MIC in vitro, Friis broth agarose (Table 1); conditions: 144 h
[6] = test system: M. suipneumoniae J2206/183b; experiment: as above; conditions: Mesomycoplasma hyopneumoniae, 144 h
M. hyorhinis ATCC 23234 = experiment: as above; conditions: Mesomycoplasma hyorhinis, ATCC23234, 144 h
M. bovis RCTC 10131 = experiment: microbe, parasite or virus in culture; conditions: RCTC10131, 144 h
M. gallisepticum S6 = experiment: Anti-mycoplasmal MIC in vitro, Friis broth agarose (Table 1); conditions: Mycoplasmoides gallisepticum
M. dispar RCTC 10125 = experiment: as above; conditions: 144 h
M. suipneumoniae JF 435 = experiment: as above; conditions: Mesomycoplasma hyopneumoniae, JF435, 144 h
M. suipneumoniae TAM 6N = experiment: as above; conditions: Mesomycoplasma hyopneumoniae, TAM6N, 144 h
[7] = Erysipelothrix rhusiopathiae, NCTC8163, 18 h

Row | Compound | MIC (M. suipneumoniae LABER) [µg/mL] | MIC [1] [µg/mL] | MIC (Strep. dylgalactiae SPD1) [µg/mL] | MIC (Staph. aureus 152) [µg/mL] | MIC (Past. multocida PA2; PA2, 18 h) [µg/mL] | MIC (Bord. bronchiseptica BO9; BO9, 18 h) [µg/mL] | MIC ([2]; 18 h) [µg/mL] | MIC (Strep. uberis SPO1; SPO1, 18 h) [µg/mL] | MIC (Past. haemolytica PA5; PA5, 18 h) [µg/mL] | MIC (Staph. aureus Oxford) [µg/mL] | MIC [3, 7] [µg/mL] | MIC [4] [µg/mL] | MIC (S. typhimurium S18) [µg/mL] | MIC (E. Coli E1) [µg/mL] | MIC (E. Coli NCTC 10418) [µg/mL] | MIC (Bord. bronchiseptica BO8) [µg/mL] | MIC (S. dublin S7) [µg/mL] | MIC (M. hyorhinis ATCC 23234) [µg/mL] | MIC (M. bovis RCTC 10131) [µg/mL] | MIC (M. suipneumoniae JF 435) [µg/mL] | also measured
1 | C/C(=C\C(=O)OCc1cc([N+](=O)[O-])cc([N+](=O)[O-])c1)CC1OCC(CC2OC2C(C)C(C)O)C(O)C1O (stereo not drawn) [Example 6, 3,5-dinitrobenzyl monate A] | 0.025 (≈ 0.0477 µM) | 0.05 (≈ 0.0953 µM) | 0.312 (≈ 0.595 µM) | 0.312 (≈ 0.595 µM) | 0.625 (≈ 1.19 µM) | 10 (≈ 19.1 µM) | 20 (≈ 38.1 µM) | 0.07 (≈ 0.133 µM) | 5 (≈ 9.53 µM) | 0.312 (≈ 0.595 µM) | 20 (≈ 38.1 µM) | > 80 | 80 (≈ 153 µM) | 80 (≈ 153 µM) | 80 (≈ 153 µM) | 40 (≈ 76.3 µM) | > 80 | 0.025 (≈ 0.0477 µM) | ≤ 0.01 | 0.05 (≈ 0.0953 µM) | MIC (Strep. agalactiae SPA1; SPA1, 18 h): 0.312 µg/mL (≈ 0.595 µM); MIC (Staph. aureus B4; B4, 18 h): 0.312 µg/mL (≈ 0.595 µM); MIC (Past. multocida PA1; PA1, 18 h): 1.25 µg/mL (≈ 2.38 µM); MIC [5]: ≤ 0.01 µg/mL; MIC ([6]; J2206/183B): 0.05 µg/mL (≈ 0.0953 µM); MIC (M. gallisepticum S6; S6, 144 h): 5 µg/mL (≈ 9.53 µM); MIC (M. dispar RCTC 10125): ≤ 0.01 µg/mL; MIC (M. suipneumoniae TAM 6N): 0.05 µg/mL (≈ 0.0953 µM)
2 | C/C(=C\C(=O)OCc1cc([N+](=O)[O-])cc([N+](=O)[O-])c1C)CC1OCC(CC2OC2C(C)C(C)O)C(O)C1O (stereo not drawn) [Example 7, 3,5-dinitro-2-methylbenzyl monate A] | 0.1 (≈ 0.186 µM) | 0.25 (≈ 0.464 µM) | 0.625 (≈ 1.16 µM) | 0.625 (≈ 1.16 µM) | 1.25 (≈ 2.32 µM) | 10 (≈ 18.6 µM) | 10 (≈ 18.6 µM) | 0.156 (≈ 0.29 µM) | 5 (≈ 9.28 µM) | 0.625 (≈ 1.16 µM) | 10 (≈ 18.6 µM) | > 80 | > 80 | > 80 | > 80 | 40 (≈ 74.3 µM) | > 80 | 0.1 (≈ 0.186 µM) | ≤ 0.1 | 0.25 (≈ 0.464 µM) | MIC (Strep. agalactiae SPA1; SPA1, 18 h): 0.625 µg/mL (≈ 1.16 µM); MIC (Staph. aureus B4; B4, 18 h): 0.625 µg/mL (≈ 1.16 µM); MIC (Past. multocida PA1; PA1, 18 h): 2.5 µg/mL (≈ 4.64 µM); MIC [5]: ≤ 0.1 µg/mL; MIC ([6]; J2206/183B): 0.25 µg/mL (≈ 0.464 µM); MIC (M. gallisepticum S6; S6, 144 h): 2.5 µg/mL (≈ 4.64 µM); MIC (M. dispar RCTC 10125): 0.05 µg/mL (≈ 0.0928 µM); MIC (M. suipneumoniae TAM 6N): 0.25 µg/mL (≈ 0.464 µM)
3 | C/C(=C\C(=O)OCc1cccc([N+](=O)[O-])c1C)CC1OCC(CC2OC2C(C)C(C)O)C(O)C1O (stereo not drawn) [Example 8, 2-methyl-3-nitrobenzyl monate A] | 0.1 (≈ 0.203 µM) | 0.1 (≈ 0.203 µM) | 0.312 (≈ 0.632 µM) | 0.312 (≈ 0.632 µM) |  |  |  |  |  | 0.312 (≈ 0.632 µM) |  | > 80 | > 80 | > 80 | > 80 | 40 (≈ 81 µM) | > 80 | 0.1 (≈ 0.203 µM) | < 0.01 | 0.1 (≈ 0.203 µM) | MIC (Past. multocida PA2; Past. multocida PA2, DST Agar, 10^4 organisms, 18 hours 37° C., read-out: MIC): 1.25 µg/mL (≈ 2.53 µM); MIC (Bord. bronchiseptica BO9; Bord. bronchiseptica BO9, DST Agar, 10^4 organisms, 18 hours 37° C., read-out: MIC): 5 µg/mL (≈ 10.1 µM); MIC ([2]; Strep. suis (group D) SPS11, DST Agar, 10^4 organisms, 18 hours 37° C., read-out: MIC): 5 µg/mL (≈ 10.1 µM); MIC (Strep. uberis SPO1; Strep. uberis SPO1, DST Agar, 10^4 organisms, 18 hours 37° C., read-out: MIC): 0.07 µg/mL (≈ 0.142 µM); MIC (Past. haemolytica PA5; Past. haemolytica PA5, DST Agar, 10^4 organisms, 18 hours 37° C., read-out: MIC): 10 µg/mL (≈ 20.3 µM); MIC ([3]; NCTC8163, Erysipelothrix rhusiopathiae NCTC 8163, DST Agar, 10^4 organisms, 18 hours 37° C., read-out: MIC): 20 µg/mL (≈ 40.5 µM); MIC (Strep. agalactiae SPA1; Strep. agalactiae SPA1, DST Agar, 10^4 organisms, 18 hours 37° C., read-out: MIC): 0.625 µg/mL (≈ 1.27 µM); MIC (Staph. aureus B4; Staph. aureus B4, DST Agar, 10^4 organisms, 18 hours 37° C., read-out: MIC): 0.625 µg/mL (≈ 1.27 µM); MIC (Past. multocida PA1; Past. multocida PA1, DST Agar, 10^4 organisms, 18 hours 37° C., read-out: MIC): 1.25 µg/mL (≈ 2.53 µM); MIC ([5]; M. bovigenitalium ATOC 14173, in vitro, 6 days 37° C., read-out: MIC): 0.025 µg/mL (≈ 0.0507 µM); MIC ([6]; M. suipneumoniae J2206/183b, in vitro, 6 days 37° C., read-out: MIC): 0.25 µg/mL (≈ 0.507 µM); MIC (M. gallisepticum S6; 144 h, M. gallisepticum S6, in vitro, 6 days 37° C., read-out: MIC): 5 µg/mL (≈ 10.1 µM); MIC (M. dispar RCTC 10125; M. dispar RCTC 10125, in vitro, 6 days 37° C., read-out: MIC): 0.05 µg/mL (≈ 0.101 µM); MIC (M. suipneumoniae TAM 6N; M. suipneumoniae TAM 6N, in vitro, 6 days 37° C., read-out: MIC): 0.25 µg/mL (≈ 0.507 µM)
